Each structure is given as a SMILES string. “And” between values parts separate entries of the source, which are not always exact repeats. Identical values can stand only once.

Usually IC50 stands for the concentration that inhibits the measured activity by half. High values mean weaker potency, low ones greater potency.

The target of the experiment is PIK3CA (human) (UniProt P42336). As to the kind of experiment: Inhibition of PIK3CA Kinase Activity.
PIK3CA (human), sequence (P42336 whole entry, looked up): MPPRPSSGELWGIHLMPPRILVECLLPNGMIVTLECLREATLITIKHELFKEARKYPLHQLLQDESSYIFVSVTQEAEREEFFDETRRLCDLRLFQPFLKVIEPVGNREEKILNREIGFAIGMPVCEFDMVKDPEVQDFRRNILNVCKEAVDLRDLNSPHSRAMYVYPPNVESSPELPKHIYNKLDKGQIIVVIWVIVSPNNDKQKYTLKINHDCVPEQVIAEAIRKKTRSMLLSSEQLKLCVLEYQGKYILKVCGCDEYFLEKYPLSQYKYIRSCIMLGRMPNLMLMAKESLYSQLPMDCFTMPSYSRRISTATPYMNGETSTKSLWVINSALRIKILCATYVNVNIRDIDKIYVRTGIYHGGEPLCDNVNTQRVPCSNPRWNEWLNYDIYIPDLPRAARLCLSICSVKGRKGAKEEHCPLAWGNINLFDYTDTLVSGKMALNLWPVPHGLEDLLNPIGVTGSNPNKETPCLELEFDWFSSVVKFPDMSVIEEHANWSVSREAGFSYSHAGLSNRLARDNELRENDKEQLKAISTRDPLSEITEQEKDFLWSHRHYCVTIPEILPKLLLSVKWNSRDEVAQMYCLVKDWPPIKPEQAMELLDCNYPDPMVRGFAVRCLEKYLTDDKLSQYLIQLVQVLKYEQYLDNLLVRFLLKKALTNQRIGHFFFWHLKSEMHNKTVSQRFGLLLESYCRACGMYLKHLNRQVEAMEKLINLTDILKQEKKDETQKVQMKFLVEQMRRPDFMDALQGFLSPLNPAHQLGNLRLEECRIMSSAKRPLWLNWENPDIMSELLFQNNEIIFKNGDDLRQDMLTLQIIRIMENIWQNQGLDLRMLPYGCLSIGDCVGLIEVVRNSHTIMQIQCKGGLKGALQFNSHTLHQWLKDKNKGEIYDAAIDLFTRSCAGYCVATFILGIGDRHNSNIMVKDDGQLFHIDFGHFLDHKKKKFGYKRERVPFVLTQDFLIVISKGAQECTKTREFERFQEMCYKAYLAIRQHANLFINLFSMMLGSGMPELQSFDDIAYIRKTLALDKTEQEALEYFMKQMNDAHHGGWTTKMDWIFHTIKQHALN
As to `Cc1nc(-c2cn3c(n2)-c2cc(-c4ccnn4[C@@H]4CCCN(C(C)(C)CO)C4)c(F)cc2OCC3)n(C(C)C)n1`, the IC50 was 47.4 nM and 19.3 nM.

Turning to `Cc1nc(-c2cn3c(n2)-c2ccc(-c4ccnn4C4CCN(C(C)(C)C)CC4)cc2OCC3)n(C(C)C)n1`, the 50% inhibitory concentration (IC50) amounted to 44.8 nM. With `Cc1cc2c(cc1-c1ccnn1C1CCN(C)CC1)OCCn1cc(-c3ncnn3C(C)C)nc1-2` the figure was 173 nM; with `Cc1nc(-c2cn3c(n2)-c2cc(C(C)N4CCN(C)CC4)c(F)cc2OCC3)n(C(C)C)n1` (centres undefined), 49.1 nM; with `Cc1nc(-c2cn3c(n2)-c2ccc(-c4cnn(C)c4[C@@H]4CCCN(C(C)C)C4)cc2OCC3)n(C(C)C)n1`, 58.8 nM. `Cc1nc(-c2cn3c(n2)-c2ccc(-c4ncnn4C4CCN(C(C)(C)C)CC4)cc2OCC3)n(C(C)C)n1` returned an IC50 of 837 nM. Under `Cc1nc(-c2cn3c(n2)-c2cc(-c4ccnn4[C@@H]4CCCN(C5COC5)C4)c(F)cc2OCC3)n(C(C)C)n1` stands 36.7 nM. As to `CC(C)n1ncnc1-c1cn2c(n1)-c1ccc(-c3ccccc3S(N)(=O)=O)cc1OCC2`, the IC50 was 242 nM. Consider `Cc1nc(-c2cn3c(n2)-c2cc([C@@H](C)N4CCN(C(C)(C)C)CC4)c(F)cc2OCC3)n(C(C)C)n1`, for which the IC50 amounted to 372 nM. `Cc1nc(-c2cn3c(n2)-c2cc(C(C)N4CCN(C5COC5)CC4)c(C)cc2OCC3)n(C(C)C)n1` (centres undefined) displayed an IC50 of 126 nM. `Cc1nc(-c2cn3c(n2)-c2cc([C@@H](C)N4CCN(CC(C)(C)O)CC4)c(F)cc2OCC3)n(C(C)C)n1`: the IC50 was determined as 182 nM.

`Cc1nc(-c2cn3c(n2)-c2cc([C@@H](C)N4CCN(C(C)C)CC4)c(C)cc2OCC3)n(C(C)C)n1`: the half-maximal inhibitory concentration (IC50) was 90 nM. As to `Cc1nc(-c2cn3c(n2)-c2cc(-c4cnn(C)c4C4CC(N(C)C)CCO4)c(F)cc2OCC3)n(C(C)C)n1` (centres undefined), the IC50 came to 9.57 nM. Under `Cc1nc(-c2cn3c(n2)-c2cc(C(=O)N4CCN(C(C)(C)CO)CC4)c(F)cc2OCC3)n(C(C)C)n1` stands 172 nM; under `CC(C)n1nc(N)nc1-c1cn2c(n1)-c1ccc(-c3ccnn3C3CCN(C(C)(C)C)CC3)cc1OCC2`, 80.9 nM; under `Cc1nc(-c2cn3c(n2)-c2cnc(N4CCCC4C4CCCCN4C)cc2OCC3)n(CC(F)(F)F)n1` (centres undefined), 1.85 nM and 1.9 nM. Under `Cc1nc(-c2cn3c(n2)-c2cc([C@@H](C)N4CCN(C(C)(C)CO)CC4)ncc2OCC3)n(C(C)C)n1` stands 219 nM; under `CCN1CCC(C2CCCN2c2ccc3c(c2)OCCn2cc(-c4nc(C)nn4C(C)C)nc2-3)CC1` (centres undefined), 18.9 nM; under `Cc1nc(-c2cn3c(n2)-c2ccc(OC4(CN5CCN(C)CC5)CC4)cc2OCC3)n(C(C)C)n1`, 86.4 nM. `Cc1nc(-c2cn3c(n2)-c2ccc(-c4cnn(C)c4C4CC(N(C)C(C)C)CCO4)cc2OCC3)n(C(C)C)n1` (centres undefined): the IC50 is 219 nM and 49.8 nM and 81.2 nM. With `Cc1nc(-c2cn3c(n2)-c2ccc(-c4ccnn4[C@@H]4CCCN(C(C)(C)CO)C4)cc2OCC3)n(C(C)C)n1` the figure was 10.8 nM; with `Cc1nc(-c2cn3c(n2)-c2cc([C@@H](C)N4CCN(C(C)(C)CO)CC4)c(F)cc2OCC3)n(C(C)C)n1`, 263 nM; with `Cc1nc(-c2cn3c(n2)-c2cc(C(C)N4CCN(C(C)(C)C)CC4)c(F)cc2OCC3)n(C(C)C)n1` (centres undefined), 250 nM. Under `Cc1nc(-c2cn3c(n2)-c2cc([C@H](C)N4CCN(C(C)C)CC4)c(F)cc2OCC3)n(C(C)C)n1` stands 59.9 nM. `Cc1nc(-c2cn3c(n2)-c2ccc(N4CCC[C@H]4C4CCN(C(C)C)CC4)cc2OCC3)n(C(C)C)n1` gave an IC50 of 20.3 nM. With `CC(C)n1ncnc1-c1cn2c(n1)-c1cnc(N3CCCC3C3CCN(C)CC3)cc1OCC2` (centres undefined) the figure was 13.9 nM; with `Cc1nc(-c2cn3c(n2)-c2ccc(-c4cn[nH]c4C4CCCN(C(C)C)C4)cc2OCC3)n(C(C)C)n1` (centres undefined), 22.9 nM and 7.46 nM.

`Cc1nc(-c2cn3c(n2)-c2cc([C@H](C)N4CCN(C(C)(C)CO)CC4)c(F)cc2OCC3)n(C(C)C)n1` gave an IC50 of 422 nM. With `CC(C)n1ncnc1-c1cn2c(n1)-c1cc(C(=O)N3CCN(C(C)(C)C)CC3)ccc1OCC2` the figure was 24.9 nM. Under `Cc1nc(-c2cn3c(n2)-c2ccc(N4CCCC45CCCN(C(C)C)C5)cc2OCC3)n(C(C)C)n1` (centres undefined) stands 72.8 nM. Under `CC(C)n1nc(N)nc1-c1cn2c(n1)-c1ccc(-c3ccnn3C3CCN(C)CC3)cc1OCC2` stands 38.5 nM. `Cc1nc(-c2cn3c(n2)-c2ccc(-c4ccnn4C4CC(C)N(C)C(C)C4)cc2OCC3)n(C(C)C)n1` (centres undefined) gave an IC50 of 100 nM.

With `Cc1nc(-c2cn3c(n2)-c2ccc(-c4cnn(C)c4C4CCCN(C(C)(C)CO)C4)cc2OCC3)n(C(C)C)n1` (centres undefined), the IC50 was 30.9 nM and 92.2 nM and 32 nM.

In turn, `Cc1nc(-c2cn3c(n2)-c2ccc(N4CCC[C@@H]4CN4CCCC4)cc2OCC3)n(C(C)C)n1` returned an IC50 of 22 nM.

In turn, `Cc1nc(-c2cn3c(n2)-c2ccc(-c4ccnn4[C@H]4CCCN(C(C)(C)CO)C4)cc2OCC3)n(C(C)C)n1` had a half-inhibitory concentration (IC50) of 43 nM.

Regarding `CC(C)n1ncnc1-c1cn2c(n1)-c1cnc(N3CCCC3CN3CCCC3)cc1OCC2` (centres undefined), the IC50 is 12.9 nM. For `Cc1nc(-c2cn3c(n2)-c2ccc(N4CCCC45CCCN(C)C5)cc2OCC3)n(C(C)C)n1` (centres undefined), the IC50 was 12.9 nM and 5.23 nM and 16.8 nM. With `Cc1nc(-c2cn3c(n2)-c2ccc(-c4cn(C)nc4C4CCCN(C(C)C)C4)cc2OCC3)n(C(C)C)n1` (centres undefined) the figure was 28.4 nM; with `Cc1nc(-c2cn3c(n2)-c2ccc(-c4cnn(C(C)C)c4CN4CCN(C)CC4)cc2OCC3)n(C(C)C)n1`, 112 nM. In turn, `Cc1nc(-c2cn3c(n2)-c2ccc(OC4(c5ccccc5)CN(C(C)C)C4)cc2OCC3)n(C(C)C)n1` displayed an IC50 of 105 nM. Under `Cc1nc(-c2cn3c(n2)-c2ccc(-c4ccnn4C4CCCN(C5(C)COC5)C4)cc2OCC3)n(C(C)C)n1` (centres undefined) stands 44.3 nM. On to `Cc1nc(-c2cn3c(n2)-c2cc([C@H](C)N4CCN(C(C)(C)C)CC4)ncc2OCC3)n(C(C)C)n1`, for which the IC50 was determined as 217 nM. With `Cc1nc(-c2cn3c(n2)-c2ccc(OC4CC(C)CN(C(C)C)C4)cc2OCC3)n(C(C)C)n1` (centres undefined), the half-inhibitory concentration (IC50) amounted to 32.8 nM. Under `Cc1nc(-c2cn3c(n2)-c2ccc(-c4cnn(C)c4[C@H]4CCCN(C(C)C)C4)cc2OCC3)n(C(C)C)n1` stands 20.7 nM; under `Cc1nc(-c2cn3c(n2)-c2ccc(-c4ccnn4C4CCCN(Cc5ccccc5)C4)cc2OCC3)n(C(C)C)n1` (centres undefined), 186 nM; under `Cc1nc(-c2cn3c(n2)-c2ccc(-n4ccnc4C4CCCN(C(C)C)C4)cc2OCC3)n(C(C)C)n1` (centres undefined), 125 nM. With `Cc1nc(-c2cn3c(n2)-c2ccc(-c4cnn(C)c4C4CCCCN4CC(C)(C)O)cc2OCC3)n(C(C)C)n1` (centres undefined) the figure was 11.2 nM; with `Cc1nc(-c2cn3c(n2)-c2cc([C@@H](C)N4CCN(C(C)(C)C)CC4)ncc2OCC3)n(C(C)C)n1`, 80.4 nM; with `Cc1nc(-c2cn3c(n2)-c2cc([C@H](C)N4CCN(C(C)(C)C)CC4)c(C)cc2OCC3)n(C(C)C)n1`, 24.1 nM.

In turn, `Cc1nc(-c2cn3c(n2)-c2cc(C(=O)N4CCN(C(C)(C)C)CC4)c(F)cc2OCC3)n(C(C)C)n1` registered an IC50 of 191 nM.

`Cc1nc(-c2cn3c(n2)-c2cc(C(C)N4CCN(CC(C)(C)O)CC4)c(C)cc2OCC3)n(C(C)C)n1` (centres undefined) returned an IC50 of 76.2 nM.

For `CC(C)n1ncnc1-c1cn2c(n1)-c1cc([S+]([O-])C3CCN(C(C)(C)C)CC3)ccc1OCC2` (centres undefined), the IC50 was found to be 149 nM. With `Cc1nc(-c2cn3c(n2)-c2ccc(N4CCCC4C4CCN(S(C)(=O)=O)CC4)cc2OCC3)n(C(C)C)n1` (centres undefined) the figure was 14.6 nM; with `Cc1nc(-c2cn3c(n2)-c2cc([C@H](C)N4CCN(C(C)C)CC4)c(C)cc2OCC3)n(C(C)C)n1`, 8.81 nM. The compound `Cc1nc(-c2cn3c(n2)-c2cc([C@@H](C)N4CCN(C(C)C)CC4)c(F)cc2OCC3)n(C(C)C)n1` had an IC50 of 169 nM. With `Cc1nc(-c2cn3c(n2)-c2cc([C@@H](C)N4CCN(C(C)(C)C)CC4)c(C)cc2OCC3)n(C(C)C)n1`, the IC50 was determined as 52.2 nM. The compound `Cc1nc(-c2cn3c(n2)-c2cc([C@H](C)N4CCN(C(C)(C)C)CC4)c(F)cc2OCC3)n(C(C)C)n1` came in with an IC50 of 247 nM. On to `Cc1nc(-c2cn3c(n2)-c2cc([C@H](C)N4CCN(C(C)(C)CO)CC4)ncc2OCC3)n(C(C)C)n1`, for which the IC50 amounted to 180 nM.

In the case of `COc1cc2c(cc1[C@@H](C)N1CCN(C(C)(C)C)CC1)-c1nc(-c3nc(C)nn3C(C)C)cn1CCO2`, the half-maximal inhibitory concentration (IC50) is 97.9 nM and 47.8 nM. The compound `Cc1nc(-c2cn3c(n2)-c2cc([C@H](C)N4CCN(CC(C)(C)O)CC4)c(F)cc2OCC3)n(C(C)C)n1` came in with an IC50 of 724 nM. Turning to `Cc1nc(-c2cn3c(n2)-c2ccc(N4CCCC4CN(C)C)cc2OCC3)n(C(C)C)n1` (centres undefined), the IC50 is 14 nM and 6.62 nM. Under `Cc1nc(-c2cn3c(n2)-c2ccc(N4CCC4[C@@H]4CCCN(C(C)C)C4)cc2OCC3)n(C(C)C)n1` (some centres undefined) stands 3.41 nM.

Compound `Cc1nc(-c2cn3c(n2)-c2cc(-c4ccnn4[C@@H]4CCCN(C(C)C)C4)c(F)cc2OCC3)n(C(C)C)n1` registered an IC50 of 11.4 nM. `Cc1nc(-c2cn3c(n2)-c2ccc(N4CCC[C@@H]4C4CCN(C(C)C)CC4)cc2OCC3)n(C(C)C)n1` had an IC50 of 21.9 nM. As to `Cc1nc(-c2cn3c(n2)-c2ccc(-c4cnc(C)n4C4CCCN(C(C)C)C4)cc2OCC3)n(C(C)C)n1` (centres undefined), the concentration for half-maximal inhibition (IC50) was 145 nM.

Consider `Cc1nc(-c2cn3c(n2)-c2cc(C(O)C4CCN(C)CC4)ccc2OCC3)n(C(C)C)n1` (centres undefined), for which the IC50 came out at 193 nM. With `Cc1nc(-c2cn3c(n2)-c2cnc(-c4cnn(C)c4C4CCCN(C(C)C)C4)cc2OCC3)n(C(C)C)n1` (centres undefined) the figure was 9.19 nM; with `Cc1nc(-c2cn3c(n2)-c2ccc(N4CCC4C4CCN(C)CC4)cc2OCC3)n(C(C)C)n1` (centres undefined), 21.5 nM and 45.4 nM and 11.8 nM; with `Cc1nc(-c2cn3c(n2)-c2ccc(N4CCC4C4CCN(C(C)C)CC4)cc2OCC3)n(C(C)C)n1` (centres undefined), 15.1 nM. On to `Cc1nc(-c2cn3c(n2)-c2ccc(OC4(CC(C)C)CN(C(C)C)C4)cc2OCC3)n(C(C)C)n1`, for which the IC50 stood at 278 nM. Turning to `Cc1nc(-c2cn3c(n2)-c2ccc(OC4(C)CCN(C(C)C)C4)cc2OCC3)n(C(C)C)n1` (centres undefined), the IC50 turned out to be 9.19 nM. `CCN1CCN(C(C)c2cc3c(cc2F)OCCn2cc(-c4nc(C)nn4C(C)C)nc2-3)CC1` (centres undefined): the IC50 turned out to be 86.8 nM. As for `Cc1nc(-c2cn3c(n2)-c2cc(-c4cnn(C)c4C4CCCN(C(C)C)C4)c(F)cc2OCC3)n(C(C)C)n1` (centres undefined), the IC50 is 20 nM and 105 nM. `CC(C)n1ncnc1-c1cn2c(n1)-c1cc(CN3CCN(C(C)(C)C)CC3)ccc1OCC2` yielded an IC50 of 53.6 nM.
